The text below walks through data of patent publication US8088806B2 (Achillion Pharmaceuticals, Inc., priority 2005, dated 2012).

In the first assay the test system is HCV replicon. The assay can be described thus: Replicon based assay of HCV replication inhibition (NPT ELISA). To be noted: Hepatitis C virus, Huh-7, 72 h, Table I; Huh-7 HCV replicon-containing cells, three days; read-out: Activity. Type of assay: cell-based, Hepatitis C virus. In outline: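 NPT (neomycin phosphotransferase) content, proportional to replicon replication, quantified by capture ELISA on day four. Before that, replicon-bearing Huh-7 cells in G418-free screening medium were exposed three days at 37° C to compound, typically six doses from 10 to 0.03 micromolar, with equal DMSO across wells.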
On the technique in general: In antiviral work, replicon cells carry a viral genome segment that copies itself.
For `Fc1ccc(-c2csc(Nc3ccc(Cl)c(C(F)(F)F)c3)n2)cc1` [compound 59, N-(4-chloro-3-(trifluoromethyl)phenyl)-4-(4-fluorophenyl)thiazol-2-amine], the EC50 is < 1000 nM.
Same read-out and setting: the same measure for `CCCCCOc1ccc(Nc2nc(-c3ccc(C(=O)N(C)CC(N)=O)nc3)cs2)cc1C(F)(F)F` [compound 221, 5-(2-(3-(trifluoromethyl)-4-(pentyloxy)phenylamino)thiazol-4-yl)-N-(carbamoylmethyl)-N-methylpyridine-2-carboxamide]: < 1000 nM; for `CCCCCCOc1ccc(Nc2nc(-c3cccnc3)cs2)cc1` [compound 90, N-(4-(hexyloxy)phenyl)-4-(pyridin-3-yl)thiazol-2-amine]: < 1000 nM.
On the same count and under the same terms, the same measure for `CCCCCOc1ccc(Nc2nc(-c3ccccc3Cl)cs2)cc1C(F)(F)F` [compound 203, 4-(2-chlorophenyl)-N-(3-(trifluoromethyl)-4-(pentyloxy)phenyl)thiazol-2-amine]: < 1000 nM; for `Fc1ccc(-c2csc(Nc3ccc(Cl)c(C(F)(F)F)c3)n2)c(F)c1` [compound 61, N-(4-chloro-3-(trifluoromethyl)phenyl)-4-(2,4-difluorophenyl)thiazol-2-amine]: < 1000 nM; for `Clc1ccc(-c2csc(Nc3ccc(Cc4ccccc4)cc3)n2)cc1` [compound 42, N-(4-benzylphenyl)-4-(4-chlorophenyl)thiazol-2-amine]: > 10000 nM.
On the same count and under the same terms, as for `CCCCCOc1ccc(Nc2ncc(C(=O)Nc3ccc(C#N)cc3)s2)cc1C(F)(F)F` [compound 150, 2-(3-(trifluoromethyl)-4-(pentyloxy)phenylamino)-N-(4-cyanophenyl)thiazole-5-carboxamide], the figure is < 1000 nM; as for `Cc1ccnc(Nc2nc(-c3c(C)nc4sccn34)cs2)c1` [compound 170, 4-methyl-N-(4-(6-methylimidazo[2,1-b]thiazol-5-yl)thiazol-2-yl)pyridin-2-amine], > 10000 nM; as for `Clc1ccc(-c2csc(NC3=NN(c4ccccc4)CC3)n2)cc1` [compound 142, N-(4-(4-chlorophenyl)thiazol-2-yl)-4,5-dihydro-1-phenyl-1H-pyrazol-3-amine], > 10000 nM.
On to `O=C(Nc1ccc(Oc2ccc(Cl)cc2)cc1)c1nc(-c2cccnc2)cs1` [compound 115, N-(4-(4-chlorophenoxy)phenyl)-4-(pyridin-3-yl)thiazole-2-carboxamide], for which the EC50 is > 10000 nM.
Same read-out and setting: the same measure for `CCCCc1ccc(CNc2nc(-c3cccnc3)cs2)cc1` [compound 82, N-(4-butylbenzyl)-4-(pyridin-3-yl)thiazol-2-amine]: > 10000 nM; for `CN(C(=O)c1nc(-c2cccnc2)cs1)c1ccc(Cl)c(Cl)c1` [compound 124, N-(3,4-dichlorophenyl)-N-methyl-4-(pyridin-3-yl)thiazole-2-carboxamide]: > 10000 nM.

The assay is the same for the next values; noted with them: Hepatitis C virus, Huh-7, 72 h, Table III; Huh-7 HCV replicon-containing cells, three days; read-out: Activity.
In the case of `CCCCCCCCOc1ccc(Nc2nc(-c3cnc(OC)nc3)cs2)cc1C(F)(F)F` [compound 662, N-(3-(trifluoromethyl)-4-(octyloxy)phenyl)-4-(2-methoxypyrimidin-5-yl)thiazol-2-amine], the EC50 is < 1000 nM.
Still for that read-out and setting: as for `CCCCCCCCOc1ccc(Nc2nc(-c3ccc(F)nc3)cs2)cc1C(F)(F)F` [compound 526, N-(3-(trifluoromethyl)-4-(octyloxy)phenyl)-4-(6-fluoropyridin-3-yl)thiazol-2-amine], the figure is < 1000 nM; as for `CCCCCOc1ccc(Nc2nc(-c3cncc(C(=O)N(C)C)c3)cs2)cc1C(F)(F)F` [compound 647, 5-(2-(3-(trifluoromethyl)-4-(pentyloxy)phenylamino)thiazol-4-yl)-N,N-dimethylpyridine-3-carboxamide], < 1000 nM.
The same measure, in the same setting: the same measure for `CCCCCCCCOc1ccc(Nc2nc(-c3ccsc3C(N)=O)cs2)cc1C(F)(F)F` [compound 667, 3-(2-(3-(trifluoromethyl)-4-(octyloxy)phenylamino)thiazol-4-yl)thiophene-2-carboxamide]: < 1000 nM; for `FC(F)(F)c1cc(Nc2nc(-c3cccnc3)cs2)ccc1OCCCN1CCCC1` [compound 696, N-(4-(3-(pyrrolidin-1-yl)propoxy)-3-(trifluoromethyl)phenyl)-4-(pyridin-3-yl)thiazol-2-amine]: 1000 to 10000 nM; for `CCCCCCCCOc1ccc(Nc2nc(-c3ccc(C#N)o3)cs2)cc1C(F)(F)F` [compound 703, 5-(2-(3-(trifluoromethyl)-4-(octyloxy)phenylamino)thiazol-4-yl)furan-2-carbonitrile]: < 1000 nM.
Still for that read-out and setting: the same measure for `CCCCCCCCOc1ccc(Nc2nc(-c3ccc(O)c(O)c3)cs2)cc1C(F)(F)F` [compound 583, 4-(2-(3-(trifluoromethyl)-4-(octyloxy)phenylamino)thiazol-4-yl)benzene-1,2-diol]: < 1000 nM; for `CCCCCCCCN(C)c1ccc(Nc2nc(-c3ccc(-c4ccccn4)s3)cs2)cc1C(F)(F)F` [compound 576, 2-(trifluoromethyl)-N^1-methyl-N^1-octyl-N^4-(4-(5-(pyridin-2-yl)thiophen-2-yl)thiazol-2-yl)benzene-1,4-diamine]: < 1000 nM.

Still in this assay, the particulars now being: Hepatitis C virus, replicon based assay of HCV replication inhibition; Table II; read-out: Activity.
Turning to `CCCCCCCCOc1ccc(Nc2nc(Cc3cccc(F)c3)cs2)cn1` [compound 498, N-(4-(3-fluorobenzyl)thiazol-2-yl)-6-(octyloxy)pyridin-3-amine], the EC50 was 1000 to 10000 nM.
On the same count and under the same terms, as for `CCCCCOc1ccc(Nc2nc(CN3CCC(N(C)C)C3)cs2)cc1F` (stereo not drawn) [compound 287, 4-((3-(dimethylamino)pyrrolidin-1-yl)methyl)-N-(3-fluoro-4-(pentyloxy)pheenyl)thiazol-2-amine], the figure is < 1000 nM; as for `CCCCCOc1ccc(Nc2nc(-c3c[nH]c4ccccc34)cs2)cc1C(F)(F)F` [compound 410, N-(3-(trifluoromethyl)-4-(pentyloxy)phenyl)-4-(1H-indol-3-yl)thiazol-2-amine], < 1000 nM; as for `CCCCCCCc1ccc(Nc2nc(-c3cccnc3)cs2)cc1` [compound 483, N-(4-heptylphenyl)-4-(pyridin-3-yl)thiazol-2-amine], < 1000 nM.
The same measure, in the same setting: as for `CCCCCCCCOc1ccc(Nc2nc(-c3cccnc3)cs2)cc1C(F)(F)F` [compound 476, N-(3-(trifluoromeethyl)-4-(octyloxy)phenyl)-4-(pyridin-3-yl)thiazol-2-amine], the figure is < 1000 nM.
As to `Fc1ccc(-c2csc(Nc3ccc(OCCCC4CCCC4)c(C(F)(F)F)c3)n2)cc1` [compound 494, N-(4-(3-cyclopentylpropoxy)-3-(trifluoromethyl)phenyl)-4-(4-fluorophenyl)thiazol-2-amine], the EC50 is < 1000 nM.
Same read-out and setting: the same measure for `CCCCCCCCOc1ccc(Nc2nc(-c3ccc(C(=O)N(C)C)nc3)cs2)cn1` [compound 468, 5-(2-(6-(octyloxy)pyridin-3-ylamino)thiazol-4-yl)-N,N-dimethylpyridine-2-carboxamide]: 1000 to 10000 nM; for `CCCCCOc1ccc(Nc2nc(Cc3ccccc3)cs2)cc1C(F)(F)F` [compound 514, 4-benzyl-N-(3-(trifluoromethyl)-4-(pentyloxy)phenyl)thiazol-2-amine]: > 10000 nM; for `CCCCCCCCOc1ccc(Nc2nc(-c3ccc(OCC(=O)OCC)cc3)cs2)cc1` [compound 461, ethyl 2-(4-(2-(4-(octyloxy)phenylamino)thia-zol-4-yl)phenoxy)acetate]: < 1000 nM.

The same assay, now with this note: Hepatitis C virus, replicon based assay of HCV replication inhibition; Table IV; read-out: Activity.
As for `c1cncc(-c2csc(Nc3nc(CN4CCCCC4)cs3)n2)c1` [compound 834, 4-((piperidin-1-yl)methyl)-N-(4-(pyridin-3-yl)thiazol-2-yl)thiazol-2-amine], the EC50 was > 10000 nM.
The same measure, in the same setting: as for `FC(F)(F)c1cccc(-c2csc(Nc3ccc(OCC4CCCCC4)c(C(F)(F)F)c3)n2)c1` [compound 771, N-(4-(cyclohexylmethoxy)-3-(trifluoromethyl)phenyl)-4-(3-(trifluoromethyl)phenyl)thiazol-2-amine], the figure is < 1000 nM.
On the same count and under the same terms, the same measure for `CCCCCCCCOc1ccc(Nc2nc(-c3ccc(CNC(=O)OC(C)(C)C)nc3)cs2)cc1C(F)(F)F` [compound 843, tert-butyl (5-(2-(3-(trifluoromethyl)-4-(octyloxy)phenylamino)thiazol-4-yl)pyridin-2-yl)methylcarbamate]: < 1000 nM; for `Fc1ccc(Cn2ccc3cc(Nc4nc(-c5ccc(F)cc5)cs4)ccc32)cc1` [compound 871, 1-(4-fluorobenzyl)-N-(4-(4-fluorophenyl)thiazol-2-yl)-1H-indol-5-amine]: > 10000 nM; for `Cc1ccc(-c2ccccc2)cc1Nc1nc(-c2cccnc2)cs1` [compound 905]: > 10000 nM.
In the case of `CCCCCCCCOc1ccc(Nc2nc(-c3csc4nccn34)cs2)cc1C(F)(F)F` [compound 807, N-(3-(trifluoromethyl)-4-(octyloxy)phenyl)-4-(imidazo[2,1-b]thiazol-3-yl)thiazol-2-amine], the EC50 is < 1000 nM.
Still for that read-out and setting: the same measure for `Cc1sc(Nc2ccc(OCCCC3CCCC3)c(C(F)(F)F)c2)nc1-c1cccnc1` [compound 837, N-(4-(3-cyclopentylpropoxy)-3-(trifluoromethyl)phenyl)-5-methyl-4-(pyridin-3-yl)thiazol-2-amine]: < 1000 nM.
Still for that read-out and setting: as for `CCC(C)c1ccc(Nc2nc(-c3cccnc3)cs2)cc1` (stereo not drawn) [compound 872, N-(4-sec-butylphenyl)-4-(pyridin-3-yl)thiazol-2-amine], the figure is 1000 to 10000 nM; as for `CCCCCCCCN(C)c1ccc(Nc2nc(-c3cccnc3)c(C)s2)cc1C(F)(F)F` [compound 862, 2-(trifluoromethyl)-N^1-methyl-N^4-(5-methyl-4-(pyridin-3-yl)thiazol-2-yl)-N^1-octylbenzene-1,4-diamine], < 1000 nM.
Regarding `COc1ncc(-c2csc(Nc3ccc(OCCCCc4ccccc4)c(C(F)(F)F)c3)n2)cn1` [compound 828, N-(4-(4-phenylbutoxy)-3-(trifluoromethyl)phenyl)-4-(2-methoxypyrimidin-5-yl)thiazol-2-amine], the EC50 was < 1000 nM.
